Data from patent US12440471B2, “Compositions and methods for the treatment of bronchopulmonary dysplasia (BPD) and BPD-associated pulmonary hypertension” (AyuVis Research, Inc., priority 2021, dated 2025).

Assays:
[1] = PK study in rat pups by SC or IV (plasma, BALF); assay type: in vivo; settings: for accumulation ratio using AUC(0-t): BALF, SC
TLR4 = biological target: T1, TLR4 (Homo sapiens, UniProt O00206); experiment: TLR4 assay: unbound TLR4 ELISA in PMA-stimulated THP-1 cell lysates; assay type: binding; settings: THP-1 human monocyte cells
T1 construct: Cell lysates were prepared, total protein was quantified and treated with different concentrations; host or cells: THP-1 cells stimulated with PMA for 48 h, then lysed
Protocol: FIG. 26A, TLR4 assay: 1×10^5 THP cells (ATCC) were seeded in 24 well plates and stimulated with phorbol myristyl actetate (PMA, 200 ng/mL) for 48 h. Cell lysates were prepared, total protein was quantified and treated with different concentrations (4, 16, 62.5 and 250 μM) of the AVR-48 for 2 h. ELISA was performed after to assess unbound TLR4 following manufacturer's instruction (Raybiotech). TLR4 IC50 of the AVR-48 was calculated using GraphPad Prism7.04.

[2] = tested on: hyperoxia-exposed BPD mouse model; experiment: BPD mouse model: flow cytometry of lung immune cell populations; assay type: in vivo
Protocol: AVR-48 normalizes two important innate immune cell populations in animals with BPD. Based on the affinity of AVR-48 for TLR4 and the increased TLR4 expression in AVR-48 treated BPD animals, the inventors determined if there would be an impact on immune cell recruitment to the lung interstitium. Flow cytometry was performed to determine absolute numbers of key immune cell populations in the lung of neonatal mice pups from AVIS-48-treated and untreated animals in the RA and BPD groups. […] All other cell populations were similar (FIG. 11).

[3] = PK study in mouse pups by IP and IN routes (plasma, lung tissue); assay type: in vivo
Text: Pharmacokinetic (PK) Profile of AVR-48 (compound 8). The PK studies of AVR-48 were developed and designed in-house, by high performance liquid chromatography (HPLC), in both mouse and rat pups by IV, IP and IN dosing, to check the bioavailability of the drug formulated as solution, suspension or nanoparticle encapsulation in plasma, broncho-alveolar lavage fluid (BALF) and lung tissues.
The first study was done in the plasma of mouse pups by IP and IN routes to determine the dose range for efficacy. […] For IN dosing, a Tmax of 1 h was found even with a dose of 0.22 mg/kg and rapid clearance was observed by 2 h.

[4] = tested on: adult respiratory distress syndrome/acute lung injury (ARDS/ALI) mouse model; settings: cited from earlier work
[5] = tested on: hyperoxia-exposed BPD mouse model; experiment: BPD mouse model: BPD-PH, RV hypertrophy ratios; assay type: in vivo
Text: AVR-48 protects the lungs from progressing towards BPD-PH. BPD-PH is characterized by abnormal vascular remodeling and rarefication of the pulmonary vasculature leading to vascular growth arrest which eventually leads to increased pulmonary vascular resistance and right heart failure (Hansmann, Sallmon et al. 2021). A similar effect is also seen in mouse models of experimental BPD, as reported by the present inventors, previously (Sun, Choo-Wing et al. 2013, Sureshbabu, Syed et al. 2016, Syed, Das et al. 2017, Leary, Das et al. 2019). There is hypertrophy of the right ventricle (RV) with an increase in the thickness of interventricular septum (IVS). […] There was no change in the ratio in the RA group treated with the drug, which was similar to RA control group (FIG. 8A).
Morphometry and quantification. To study chord length, septal thickness and radial alveolar count in the lungs, RV, LV and IVS thickness, 5 μm-thick left-lobe lung and heart paraffin-embedded sections were stained with H&E. Multiple randomly chosen areas (at least 10 areas) from each section were photographed using 100× total magnification. Sections with large airways or blood vessels from the lung were excluded for lung morphometry while quantitative measurements of PH-induced RV hypertrophy ratios (RV/LV and RV/LV+IVS) were done using the methodology described previously (Sun, Choo-Wing et al. 2013). The lung morphometry parameters were measured as described (Bhandari, Choo-Wing et al. 2008, Leary, Das et al. 2019, Das, Acharya et al. 2020, Das, Curstedt et al. 2020) either using ImageJ (a free software of NIH) or CellSens software (version 7, Olympus).

pre-term lamb BPD model = experiment: Pre-term lamb BPD model: plasma cytokines; assay type: in vivo
[6] = AVR-48-treated RA animals vs RA animals
[7] = treated vs untreated BPD animals, similar to RA control
[8] = C57BL/6J, mouse, plasma, 10 mg/kg IP

T1 sequence (O00206 24-839): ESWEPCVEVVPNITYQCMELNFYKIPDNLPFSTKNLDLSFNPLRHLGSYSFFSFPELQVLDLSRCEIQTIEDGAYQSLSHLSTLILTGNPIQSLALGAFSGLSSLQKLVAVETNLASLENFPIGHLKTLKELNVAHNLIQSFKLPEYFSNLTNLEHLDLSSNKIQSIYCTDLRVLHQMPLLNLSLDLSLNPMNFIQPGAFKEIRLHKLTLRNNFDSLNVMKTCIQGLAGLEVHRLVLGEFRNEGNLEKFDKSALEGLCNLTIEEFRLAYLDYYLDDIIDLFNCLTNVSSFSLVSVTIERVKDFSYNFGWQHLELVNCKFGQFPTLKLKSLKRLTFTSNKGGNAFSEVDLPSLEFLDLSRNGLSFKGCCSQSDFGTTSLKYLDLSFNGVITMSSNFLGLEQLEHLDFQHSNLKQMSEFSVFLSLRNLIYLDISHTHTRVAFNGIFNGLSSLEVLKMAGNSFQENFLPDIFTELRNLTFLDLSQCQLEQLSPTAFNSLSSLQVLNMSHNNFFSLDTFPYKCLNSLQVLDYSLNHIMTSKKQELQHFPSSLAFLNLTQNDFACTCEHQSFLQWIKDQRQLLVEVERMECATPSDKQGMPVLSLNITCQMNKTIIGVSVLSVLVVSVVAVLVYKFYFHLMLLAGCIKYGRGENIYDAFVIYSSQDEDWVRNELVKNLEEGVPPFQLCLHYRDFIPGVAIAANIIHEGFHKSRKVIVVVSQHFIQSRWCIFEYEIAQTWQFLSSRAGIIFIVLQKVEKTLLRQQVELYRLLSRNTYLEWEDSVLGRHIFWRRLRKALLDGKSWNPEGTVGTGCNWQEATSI

## CC(=O)N[C@@H]1C(Oc2ccc([N+](=O)[O-])cc2)OC(CO)C(O)C1O (stereo partly drawn) [AVR-48]
[1]; 100 mg/kg/day
  accumulation ratio using AUC(0-t): 1.90
[1]; 150 mg/kg/day
  accumulation ratio using AUC(0-t): 0.880
[1]; Sprague Dawley Crl:CD, rat, in vivo, sc, AUC(0-t)
  AUC(0-t): 2610 ng·h/mL
[1]; rat, in vivo, sc, 75 mg/kg
  AUC(0-t) dose proportionality: increased in a dose-proportional manner
TLR4
  binding to TLR4: binds to TLR4
TLR4; listed as 8
  binding to TLR4: bind TLR4
[2]; [6]
  all other immune cell populations in the lung: similar
  dendritic cells in the lung: increase
  macrophages in the lung: slight, but statistically significant, decrease
[2]; [7]
  macrophages in the lung: increased
  neutrophils in the lung: decreased
[3]; C57BL/6J, mouse, intraperitoneal, lung tissue, 10 mg/kg
  Tmax: 5 min
[3]; C57BL/6J, mouse, intraperitoneal, plasma, single IV or IP injection of 10 mg/kg
  Cmax: 5.78 ± 0.91 µM
[3]; C57BL/6J, mouse, plasma, other: intranasal (IN), IN dosing, 0.22 mg/kg
  Tmax: 60 min
[3]; C57BL/6J, mouse, plasma, 0.22 mg/kg IP
  Tmax: 5 min
[3]; [8]
  Tmax: 5 min
  half-life: 21.6 min
[3]; IN dosing, 0.22 mg/kg
  time by which rapid clearance was observed: ≤ 2 h
[3]; following IP injection
  clearance from circulation: cleared from circulation rapidly
[3]; solution formulation
  bioavailability in plasma and lungs, IN vs IP: similar
[4]; IV, Shah, Das et al. 2021
  efficacy dose: 10 mg/kg/dose
[4]; LPS-, hyperoxia- and CLP-induced ARDS in adult mice
  severe lung inflammation: decreases severe lung inflammation
[5]; BPD group after treatment
  Fulton's Index (RV/LV+IVS): decreased significantly
  RV/left ventricle (LV) ratio: decreased significantly
[5]; RA group treated with the drug vs RA control
  RV/LV ratio and Fulton's Index in room air animals: no change
pre-term lamb BPD model; early time points (1-4 days), 2/d for 7 days, vs vehicle
  IL-10 concentration in plasma: significantly decreased
pre-term lamb BPD model; vs vehicle treated lambs after 10 days
  IL-6 concentration in plasma: significantly decreased
